The values below come from patent US6541463B1, “Inhibitors of type 5 and type 3 17β-hydroxysteroid dehydrogenase and methods for their use” (Endorecherche, Inc., priority 1998, dated 2003).

Like-named read-outs stand apart in the source and are kept apart here.

Test [1] has as its target T1, human type 5 17β-hydroxysteroid dehydrogenase (Homo sapiens, UniProt P42330).
T1 construct: screen again a human placental λgt11 cDNA to get the full length cDNA clone; expressed in transfected cells; host or cells: human embryonal kidney 293 cells (pCMV / pCMV-neo vector)
T1 sequence (P42330 1-323): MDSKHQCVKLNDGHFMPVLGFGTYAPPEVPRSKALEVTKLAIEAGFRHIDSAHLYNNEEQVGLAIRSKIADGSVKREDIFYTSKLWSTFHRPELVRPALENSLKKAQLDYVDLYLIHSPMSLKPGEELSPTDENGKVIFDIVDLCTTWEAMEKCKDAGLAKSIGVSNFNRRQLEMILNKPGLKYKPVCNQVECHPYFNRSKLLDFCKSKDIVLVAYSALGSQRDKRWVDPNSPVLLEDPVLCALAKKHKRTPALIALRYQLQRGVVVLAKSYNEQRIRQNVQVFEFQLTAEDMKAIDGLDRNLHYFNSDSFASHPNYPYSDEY
The test can be described thus: Reversibility of human type 5 17β-HSD inhibitory activity (preincubation, wash). The format is cell-based. The protocol:
In column 3, the reversibility of the inhibition of type 5 17β-hydroxysteroid dehydrogenase activity expressed in percentage of control is reported. The manner in which the reversibility is determined is described in “Efficacy of Preferred Inhibitors: V. Reversibility of Human Type 5 17β-HSD Inhibitory Activity”. Lower number is desirable. Blank means that a determination was not done.
Determination of activity was performed as described (Luu-The et al., Mol. Endocrionol. 4: 268-275, 1990, Lachance et al., J. Biol. Chem. 265: 20469-20475, 1990; Luu-The et al., DNA & Cell Biol. 14: 511-518, 1995). Briefly, 0.1 μM of the indicated ^14C-labeled substrate (Dupont Inc. (Canada), namely, DHEA, 4-androstene-3,17-dione (Δ4), in absence or presence of increasing concentration of preferred inhibitor of the invention, was added to freshly changed culture medium in a 6-well culture plate. After incubation for 1 h, the steroids were extracted twice with 2 ml of ether. The organic phase were pooled and evaporated to dryness. The steroids were solubilized in 50 μl of dichloromethane, applied to Silica gel 60 thin layer chromatography (TLC) plate (Merck, Darmstad, Germany) then separated by migration in the toluene-acetone (4:1) solvent system. […] Transfection could be also performed with HeLa, SW-13, 293, COS-1 cells, the preferred cell line is 293 cells.
The reversibility assay was performed as described above for the standard type 5 17β-HSD enzymatic assay, except that before adding the ^14C-labeled substrate, the cells were preincubated with 0.3 μM of the indicated inhibitor for 1 h, (or the indicated time interval), followed by two washes with phosphate saline buffer (PBS).

For test [2], the target named is T2, human type 3 3α-hydroxysteroid dehydrogenase (Homo sapiens, UniProt P52895).
T2 construct: expressed in transfected cells; host or cells: 293 cells, transient transfection
T2 sequence (P52895 1-323): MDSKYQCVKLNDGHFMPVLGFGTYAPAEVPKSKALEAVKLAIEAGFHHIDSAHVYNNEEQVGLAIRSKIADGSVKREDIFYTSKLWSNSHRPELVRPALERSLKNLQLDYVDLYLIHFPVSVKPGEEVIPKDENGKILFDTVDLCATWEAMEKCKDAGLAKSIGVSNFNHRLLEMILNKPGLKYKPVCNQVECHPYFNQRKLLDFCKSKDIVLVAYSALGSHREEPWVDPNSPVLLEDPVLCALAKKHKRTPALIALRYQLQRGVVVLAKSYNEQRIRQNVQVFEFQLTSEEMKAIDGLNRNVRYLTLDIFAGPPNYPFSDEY
The test can be described thus: Enzymatic assay for type 3 3α-HSD. The format is biochemical. Particulars: Table 4′; read-out: Inhibition Type 3 3α-HSD Activity IC50. The protocol: The manner in which IC50 was determined is described in “Efficacy of Preferred Inhibitors: VI. Enzymatic assay for types 1, 2, and 3 17β-HSD and types 1 and 3 3α-HSD”. […] numbers of IC50 are desirable. Blank means that a determination was not done. The % of inhibition at the concentration of 3.10^−6M determined in preliminary screening test is reported in square braquets.
Enzyme sources. 293 cells transiently transfected with expression vectors encoding types 1, 2 and 3 17β-HSD (Luu-The et al., J. Steroid Biochem. Molec. Biol., 55: 581-587, 1995), types 1 and 2 5α-reductase (Luu-The et al., J. Invest. Dermatol., 102: 221-226, 1994) and types 1 and 3 3α-HSD (Dufort et al. Biochem. Biophys. Res. Commun. 228: 474-479, 1996), using the calcium phosphate procedure (Kingston et al., In: Current Protocols in Molecular Biology. Edited by E. M. Ausbel, R. Brent, R. E. Kingston, D. D. Moore, J. G. Seidman, J. A. Smith, K. Struhl. John Wiley & Sons, New York, pp. 9.1.1-9.1.9, 1991; Luu-The et al., J. Invest. Dermatol., 102: 221-226, 1994). For assays using cell subfractions, cells were sonicated in 50 mM sodium phosphate buffer (pH 7.4), containing 20% glycerol and 1 mM EDTA and centrifuged at 10 000×g for 30 min before centrifugation for 100 000×g for 1 h to separate the mitochondrial and microsomal fractions, respectively. The cytosol fractions (100 000×g supernatant) was used to determine type 1 activity while the microsomal fraction (pellet at 100 000×g) was used for measurement of types 2 and 3 17β-HSD activities.
Incubation. The enzymatic reaction was carried out at 37° C. in 1 ml of 50 mM sodium phosphate buffer, pH 7.4, containing 20% glycerol, 1 mM EDTA, and 2 mM cofactors (NADPH or AND^+) for 1 h in the presence of 0.1 μM ^14C-labeled substrate: estrone and 4-dione for types 1 and […] 17β-HSD, respectively, testosterone for type 2 17β-HSD as well as types 1 and 2 5α-reductases, DHT for types 1 and 3 3α-HSD activities, and the indicated concentration of inhibitor.
Extraction of metabolites, migration on TLC and quantification were as described above for the assay of type 5 17β-HSD.

With `CCC[C@@H]1CC2C3C=CC4=CC(=O)CC[C@]4(C)C3CC[C@]2(C)C1=O` (some centres unmarked) [EM-1097], in test [1], the “Reversibility ((%) of control)” value stood at 45%.

As to `CC1(C)CC[C@@]2(CCC3C4CCc5cc(F)ccc5C4CC[C@@]32C)OC1=O` (some centres unmarked) [EM-1157-CS], the “Reversibility ((%) of control)” value in test [1] (Table 4′) is listed as 28 % of control. In addition, the IC50 in test [2] is greater than 10 µM.

For `CC(C)C[C@@H]1CC2C3C=CC4=CC(=O)CC[C@]4(C)C3CC[C@]2(C)C1=O` (some centres unmarked) [EM-1273-CS], the “Reversibility ((%) of control)” value in test [1] came out at 40%.

In the case of `COc1ccc(CC(=O)O[C@]2(C(C)=O)CCC3C4C=C(C)C5=CC(=O)C=C[C@]5(C)C4CC[C@@]32C)cc1` (some centres unmarked) [EM-1291], the “Reversibility ((%) of control)” value in test [1] was 27%.

Regarding `CC1(C)CCC2(CCC3C4CCc5cc(OS(C)(=O)=O)ccc5C4CCC32C)OC1=O` (centres unmarked) [EM-1365-CS], in test [1] (Table 4′), the “Reversibility ((%) of control)” value is 49 % of control. In test [2], the IC50 is greater than 10 µM.

`COCCOc1cc2c(cc1Cl)C1CCC3(C)C(CCC34CCC(C)(C)C(=O)O4)C1CC2` (centres unmarked) [EM-1371-CS]: the “Reversibility ((%) of control)” value in test [1] (Table 4′) is reported as 40 % of control.

Consider `COc1c(Br)cc2c(c1Br)CCC1C2CCC2(C)C1CCC21CCC(C)(C)C(=O)O1` (centres unmarked) [EM-1385-CS], for which the “Reversibility ((%) of control)” value in test [1] (Table 4′) is recorded as 60 % of control.

In the case of `COc1ccc2c(c1)C(=O)CC1C3CCC4(CCC(C)(C)C(=O)O4)C3(C)CCC21O` (centres unmarked) [EM-1386], the “Reversibility ((%) of control)” value in test [1] (Table 4′) is recorded as 54 % of control.

On to `CN(C)CCOc1ccc2c(c1)CCC1C2CCC2(C)C1CCC21CCC(C)(C)C(=O)O1` (centres unmarked) [EM-1389-CS], for which, in test [1] (Table 4′), the “Reversibility ((%) of control)” value is given as 40 % of control.

As to `CC1(C)CCC2(CCC3C4CCc5cc(OCCN6CCCCC6)ccc5C4CCC32C)OC1=O` [EM-1390-CS, 3-(N-piperidyl-ethyl)-1,3,5(10)-estratrien-17(R)-spiro-2′-(5′,5′-dimethyl-6′-oxo)-tetrahydropyran], in test [1] (Table 4′), the “Reversibility ((%) of control)” value is listed as 50 % of control.

For the compound `CC1(C)CCC2(CCC3C4CCc5c(cc(Cl)c(O)c5Cl)C4CCC32C)OC1=O` (centres unmarked) [EM-1391-CS], the “Reversibility ((%) of control)” value in test [1] (Table 4′) was 49 % of control.

As to `CC1(C)CCC2(CCC3C4CCc5c(cc(Cl)c(OS(C)(=O)=O)c5Cl)C4CCC32C)OC1=O` (centres unmarked) [EM-1392-CS], the “Reversibility ((%) of control)” value in test [1] (Table 4′) is on record as 38 % of control.

With `COCCOc1cc2c(cc1F)C1CCC3(C)C(CCC34CCC(C)(C)C(=O)O4)C1CC2` (centres unmarked) [EM-1393-CS], in test [1] (Table 4′), the “Reversibility ((%) of control)” value is reported as 38 % of control.

With `COc1ccc2c(c1)C(=O)CC1C2CC[C@@]2(C)C1CC[C@@]21CCC(C)(C)C(=O)O1` (some centres unmarked) [EM-1394], the “Reversibility ((%) of control)” value in test [1] (Table 4′) is given as 23 % of control. Also, in test [2], the IC50 was greater than 10 µM.

`COCCOc1cc2c(cc1C#N)C1CC[C@@]3(C)C(CC[C@@]34CCC(C)(C)C(=O)O4)C1CC2` (some centres unmarked) [EM-1396]: the “Reversibility ((%) of control)” value in test [1] (Table 4′) was 28 % of control. In test [2], the IC50 was greater than 10 µM.

Take `CC1(C)CC[C@@]2(CCC3C4CCc5cc(C(=O)O)ccc5C4CC[C@@]32C)OC1=O` (stereo partly drawn) [EM-1401, 3-Carboxy-1,3,5(10)-estratrien-17(R)-spiro-2′-(5′,5′-dimethyl-6′-oxo)tetrahydropyran]: in test [1] (Table 4′), the “Reversibility ((%) of control)” value is on record as 31 % of control. For the same compound, in test [2], the IC50 was greater than 10 µM.

`COCCOc1cc2c(cc1C(=O)OC)C1CC[C@@]3(C)C(CC[C@@]34CCC(C)(C)C(=O)O4)C1CC2` (stereo partly drawn) [EM-1402-CS, 2-Carbomethoxy-3-(2″-methoxyethyloxy)-1,3,5(10)-estratrien 17(R)-spiro-2′-(5′,5′-dimethyl-6′-oxo)tetrahydropyran]: the “Reversibility ((%) of control)” value in test [1] (Table 4′) was 25 % of control. Besides, the IC50 in test [2] was greater than 10 µM.

Take `CC1(C)CC[C@@]2(CCC3C4CCc5cc(C(N)=O)ccc5C4CCC32C)OC1=O` (some centres unmarked) [EM-1404]: the IC50 in test [2] is greater than 10 µM.

Regarding `COCCOc1cc2c(cc1C(=O)O)C1CCC3(C)C(CCC34CCC(C)(C)C(=O)O4)C1CC2` [EM-1405, 2-Carboxy-3-(2″-methoxyethyloxy)-1,3,5(10)-estratrien-17(R)-spiro-2′-(5′,5′-dimethyl-6′-oxo)tetrahydropyran], the “Reversibility ((%) of control)” value in test [1] (Table 4′) is 53 % of control.

As to `COc1cc2c(cc1C)C1CCC3(C)C(CCC34CCC(C)(C)C(=O)O4)C1CC2` (centres unmarked) [EM-1412-CS], the “Reversibility ((%) of control)” value in test [1] (Table 4′) was 71 % of control.

In the case of `COCCOc1cc2c(cc1C(=O)N(C)C)C1CCC3(C)C(CCC34CCC(C)(C)C(=O)O4)C1CC2` (centres unmarked) [EM-1413-CS], the “Reversibility ((%) of control)” value in test [1] (Table 4′) is 37 % of control.

With `COCCOc1cc2c(cc1C(N)=O)C1CC[C@@]3(C)C(CC[C@@]34CCC(C)(C)C(=O)O4)C1CC2` (stereo partly drawn) [EM-1424, 2-Carbamoyl-3-(2″-methoxyethyloxy)-1,3,5(10)-estratrien 17(R)-spiro-2′-(5′,5′-dimethyl-6′-oxo)tetrahydropyran], in test [1] (Table 4′), the “Reversibility ((%) of control)” value is on record as 17 % of control. In test [2], the IC50 is greater than 10 µM.
